Data set [1] deals with HEp-2 cells. The data set is described as follows: Cytotoxicity in uninfected HEp-2 cells, neutral red. Type of data set: cell-based. Set-up: unit not given here. The note with it: absence of virus. The method, then:
(§1) Test compounds were dissolved in DMSO and then prepared in eight half-log dilutions in MEM medium with 50 μg/mL gentamicin and 2% FBS (MA-104 cells only). Each dilution was added to 5 wells of a 96-well plate with 80-100% confluent cells (either MA-104 cells or HEp-2 cells). Three wells of each dilution were infected with respiratory syncytial virus A2 (ATCC VR-1540) and two wells remained uninfected as toxicity controls. After maximum cytopathic effect (CPE) was observed microscopically in untreated virus control wells, plates were stained with neutral red dye for approximately 2 hours, then supernatant dye was removed and the incorporated dye was extracted in 50:50 Sorensen citrate buffer/ethanol and read on a spectrophotometer. Optical density values were normalized based on cell and virus controls, then the concentration of test compound required to inhibit CPE by 50% (EC50) was calculated by regression analysis. The reported EC50 value is the mean of at least two experiments. The concentration of compound that caused 50% CPE in the absence of virus was similarly calculated to determine cytotoxicity (CC50).

Data set [2] relates to Differentiated normal human bronchial epithelial (dNHBE) cells. The data set is described as follows: dNHBE assay: toxicity evaluated microscopically. The format is cell-based. Set-up: unit not given here.
Data set [3] relates to respiratory syncytial virus A2 (ATCC VR-1540). Description: Cytopathic effect assay with RSV A2 in HEp-2 cells. The format is cell-based. The conditions noted are these: human respiratory syncytial virus; RSV in HEp-2 cells, CPE inhibition, neutral red. The protocol: as §1
In general terms: Protection from cytopathic effect is a common read-out in antiviral testing.

For data set [4] the test system is unchanged. Description: Cytopathic effect assay with RSV A2 in MA-104 cells. The format is cell-based. The note with it: human respiratory syncytial virus, MA104, CPE inhibition, neutral red. The protocol:
as §1

Data set [5] concerns Respiratory syncytial virus (RSV) type A, strain A2 (ATCC VR-1540). The data set is described as follows: dNHBE assay: RSV virus yield reduction (EC90). Type of data set: cell-based. The conditions noted are these: RSV (A2) in dNHBE cells, concentration reducing virus yield by 1 log10, mean of at least two experiments.
The nature of data set [6]: Hamster lung triphosphate assay. The format is in vivo, Golden Syrian hamsters. The conditions noted are these: analog triphosphate in hamster lung tissue 72 h after oral target dose of 50 mg/kg in PEG400. The protocol: Male Golden Syrian hamsters (n=3 per test compound) were fasted overnight and then administered test compounds in PEG400 at a target dose of 50 mg/kg by oral gavage. Food was returned 4 h after dosing. At 72 h post dose, animals were anesthetized and a sample of lung tissue was removed and flash-frozen in liquid nitrogen. Approximately 0.5 g of frozen tissue was homogenized using a Polytron homogenizer in 5 volumes homogenization solution (MeOH:50% aqueous KOH:268 mM EDTA, pH 8, 1750:5:750, v/v) in a dry ice/ethanol bath. Supernatants were prepared by centrifugation and analyzed by LC-MS/MS for concentrations of the corresponding analog triphosphates. See Table 7 below for the 72 hour lung triphosphate concentration. After 72 hours, the lung triphosphate concentration following administration of Compound AB and Compound AC was greater than 800 ng/g.

Where [7] appears, read: human respiratory syncytial virus.

Where only a bound is given, the exact number is not on record here.

Regarding `Nc1ccn([C@@H]2O[C@@](CO)(CCl)C(O)[C@H]2F)c(=O)n1` (stereo in doubt) [W], the TC50 in data set [1] was over 100. The same compound yielded a Visual toxicity in data set [2] of over 338. Moreover, the EC50 in data set [3] is 0.6 µM; in data set [4], 9.6 µM. In addition, the EC90 in data set [5] (setting [7]) stood at 0.58 µM.
`CC(C)OC(=O)[C@H](C)N[P@](=O)(OC[C@@]1(C)O[C@@H](n2cnc3c(N(C)C)nc(NC(=O)C(C)C)nc32)[C@H](F)[C@@H]1O)Oc1ccccc1` [AO, (S)-Isopropyl 2-(((S)-(((2R,3R,4R,5R)-5-(6-(dimethylamino)-2-isobutyramido-9H-purin-9-yl)-4-fluoro-3-hydroxy-2-methyltetrahydrofuran-2-yl)methoxy)(phenoxy)phosphoryl)amino) propanoate]: the “72 h Lung TP Concentration” value in data set [6] is 108 ng/g. In data set [2], this compound registered a Visual toxicity of over 1.5. The compound also registered an EC90 in data set [5] of 0.096 µM.
On to `CNc1nc(N)nc2c1ncn2[C@@H]1O[C@](C)(COP(=O)(N[C@@H](C)C(=O)OC(C)C)Oc2ccccc2)[C@@H](O)[C@H]1F` (stereo partly shown) [Compound D], for which, in data set [1], the TC50 is over 100. This compound displayed a Visual toxicity in data set [2] of over 172. This compound showed an EC50 in data set [3] of over 100 µM. Further, the EC90 in data set [5] (setting [7]) stood at 1.7 µM.
In data set [1], `CC[C@]1(CO)O[C@@H](n2cnc3c(N(C)C)nc(N)nc32)[C@H](F)[C@@H]1O` [Compound O, (2R,3R,4R,5R)-5-(2-Amino-6-(dimethylamino)-9H-purin-9-yl)-2-ethyl-4-fluoro-2-(hydroxymethyl)tetrahydrofuran-3-ol] showed a TC50 of over 100. In data set [2], the Visual toxicity is over 293. For the same compound, the results for the EC50 in data set [3] and in data set [4] were over 100 µM and over 293 µM, respectively. Moreover, the 90% effect concentration (EC90) in data set [5] (setting [7]) is over 293 µM.
The compound `CC[C@]1(COP(=O)(N[C@@H](C)C(=O)OC(C)C)Oc2ccccc2)O[C@@H](n2cnc3c(N(C)C)nc(N)nc32)[C@H](F)[C@@H]1O` (stereo partly drawn) [Compound P, (2S)-Isopropyl 2-(((((2R,3R,4R,5R)-5-(2-amino-6-(dimethylamino)-9H-purin-9-yl)-2-ethyl-4-fluoro-3-hydroxytetrahydrofuran-2-yl)methoxy)(phenoxy)-phosphoryl)amino) propanoate] showed a TC50 in data set [1] of over 100. In data set [2], this compound displayed a Visual toxicity of over 143. Also, the values for the EC50 in data set [3] and in data set [4] were over 100 µM and over 164 µM, respectively. In data set [5] (setting [7]), this compound showed an EC90 of 88.6 µM.

In general, EC50 refers to the concentration needed to bring the measured effect to its halfway point. The term EC90 denotes the concentration needed for an effect of 90%.

(Values after patent US10202412B2, “β-D-2′-deoxy-2′-substituted-4′-substituted-2-substituted-N6-substituted-6-aminopurinenucleotides for the treatment of paramyxovirus and orthomyxovirus infections” (Atea Pharmaceuticals, Inc., priority 2016, dated 2019).)
